In one experiment the test system is VM21 melanoma cells. Kind of experiment: MTT colorimetric assay, overall cell growth, VM21. Conditions: Homo sapiens; MTT, 72 hours of incubation; read-out: In Vitro IC50 Growth Inhibitory Values, VM21. The format is cell-based, human. The source says:
(§1) The amount of formazan obtained at the end of the experiment, measured by means of a spectrophotometer, is directly proportional to the number of living cells. Optical density determination thus enabled a quantitative measurement of the effect of the investigated compounds as compared to the control condition (untreated cells) and/or to other reference compounds. Eleven human cancer cell lines and one mouse melanoma cell-line (B16F10) described in Table 2 were used in the following MTT tests. These cancer cell lines cover seven histological cancer types including prostate (PC3), glioma (Hs683, T98G, U373, melanoma (VM21, VM28), non-small-cell-lung (A549), breast (MCF-7), colon (LoVo) and oesophageal (OE21, OE33) cancers. […] Each cell line was seeded in its appropriate culture medium. The detailed experimental procedure was the following: after a 24-hour period of incubation at 37° C., the culture medium was replaced by 100 μl of fresh medium in which the tested compound was previously dissolved, at the following molar concentrations: 10^-8 […] and 10^-4 M. Each experiment was performed in sestuplicates (6 times). After 72 hours of incubation at 37° C. with (experimental conditions) or without (control condition) the compound to be tested, the medium was replaced by 100 μl MTT dissolved in RPMI (1640 without phenol red) at a concentration of 0.5 or 1 mg/ml. The micro-wells were subsequently incubated during 3 hours and a half at 37° C. and centrifuged at 1300 rpm during 10 minutes. MTT was removed and formazan crystals formed were dissolved in 100 μl DMSO. The micro-wells were shaken for 5 minutes and read on a spectrophotometer at wavelengths of 570 nm (maximal formazan absorbance). For each experimental condition, the mean optical density was calculated, allowing the determination of the percentage of remaining living cells in comparison to the control. […] The origin of all the cell lines we used, along with their biological characteristics, and the validation procedures of the MTT colorimetric assay as employed here are fully detailed in Van Quaquebeke et al., 2005, J Med Chem 48:849-856; […]
For orientation: Formazan colour is commonly taken as a measure of viable cells.

Experiment [1] relates to A549 non-small-cell-lung cancer cell line. The experiment can be described thus: Cellular imaging (quantitative videomicroscopy), global growth ratio, A549. Type of experiment: cell-based. Conditions: Homo sapiens, 72 h, read-out: Global Grow Ratio Treated/Ct (GGR T/Ct) determined by Video Quantitative microscopy, A549. The source says:
(§2) As the MTT test is based on the mitochondria functions, we also investigated the effects of the di- and tri-vanilloyl derivatives according to the invention on cell proliferation, migration and morphology by means of a cellular imaging approach (Debeir et al., Cytometry 60:29-40, 2004; Debeir et al., IEEE Trans Med Imaging 24:697-711, 2005) either in the human U373-MG glioma cell line, which is apoptosis-resistant but autophagy-sensitive (Lefranc F et al., Neurosurgery 2008) and in the human A549 non-small-cell-lung cancer cell line, which is apoptosis-resistant and autophagy-resistant (Mijatovic T et al., Neoplasia 2006, May; 8(5):402-12).
(§3) Investigations have also been performed in human normal fibroblasts (WS1 and WI38—see Tables 4 and 5). Cellular imaging relied on the use of computer-assisted phase-contrast microscopy making possible to film the behaviour of living cells in culture dishes for several days.
(§4) Cells were seeded in a 25-cm^2 flask at a low density, treated or not with the vanilloyl-esters invention (at a concentration of 50 μM) and filmed thereafter for a period of 72 h. The experiment was conducted in quadruplicates (in duplicates for DLT-95 compounds).
(§5) The behaviour of the cells, in terms of morphology, growth and death were thus investigated. The effect on the overall growth was measured by counting the number of cells on the first (0 h) and the last image (72 h) of each film. The global growth ratio (GGR) was then deduced by dividing the number of cells on the last image by the number of cells on the first image. The ratio GGRtreated cells/GGRcontrol cells, was further calculated thereby obtaining a value that describes the effect of compounds of the present invention on the overall cell growth. The methodology is fully described and validated in Debeir et al., 2008, Exp Cell Res 314:2985-2998 and Mathieu et al., 2009, J Cell Mol Med, Feb. 20, 2009.
(§6) Illustrative pictures (time=0 h and 72 h) of glioblastoma and normal fibroblast cell line left untreated or treated with poly-vanillic compounds according to the invention (50 μM) are provided in FIG. 1 (U373 glioblastoma) and FIG. 2 (normal fibroblasts). The GGR parameter analyses confirmed the marked impairment of cell growth in both cancer cell lines of the poly-vanillic compounds according to the invention (Table 5).

For experiment [2], the system named is Eleven human cancer cell lines. Kind of experiment: MTT colorimetric assay, across the eleven human cancer cell lines. Type of experiment: cell-based. Conditions: mean ± SEM over the 11 human cancer cell lines, MTT, 72 hours; read-out: In Vitro IC50 Growth Inhibitory Values, m ± SEM.
Excerpt: as §1

The next experiment concerns U373-MG glioma cell line. The experiment can be described thus: Cellular imaging (quantitative videomicroscopy), global growth ratio, U373. The format is cell-based. Conditions: Homo sapiens, 50 μM, 72 h, read-out: Global Grow Ratio Treated/Ct (GGR T/Ct) determined by Video Quantitative microscopy, U373.
Excerpt: as §2, §3, §4, §5, §6

The subject of the next experiment is VM48 melanoma cells. Kind of experiment: MTT colorimetric assay, overall cell growth, VM48. Type of experiment: cell-based, human. Conditions: Homo sapiens; MTT, 72 hours of incubation; read-out: In Vitro IC50 Growth Inhibitory Values, VM48.
For the next experiment, the system named is Hs683 glioma cells. The experiment can be described thus: MTT colorimetric assay, overall cell growth, Hs683. Type of experiment: cell-based, human. Conditions: Homo sapiens, Hs 683, 72 hours of incubation, read-out: In Vitro IC50 Growth Inhibitory Values, Hs683.
Excerpt: as §1

The next experiment relates to U373 glioblastoma cells. Kind of experiment: MTT colorimetric assay, overall cell growth, U373. The format is cell-based, human. Conditions: Homo sapiens, U373 MG, 72 hours of incubation, read-out: In Vitro IC50 Growth Inhibitory Values, U373.
Excerpt: as §1

In experiment [3] the test system is PC-3 prostate cancer cells. The experiment can be described thus: MTT colorimetric assay, overall cell growth, PC-3. The format is cell-based, human. Conditions: Homo sapiens, 72 hours of incubation, read-out: In Vitro IC50 Growth Inhibitory Values, PC-3.
Excerpt: as §1

The subject of another experiment is T98G glioma cells. Kind of experiment: MTT colorimetric assay, overall cell growth, T98G. Type of experiment: cell-based, human. Conditions: Homo sapiens, T98G, 72 hours of incubation, read-out: In Vitro IC50 Growth Inhibitory Values, T98G.
Excerpt: as §1

For experiment [4], the system named is B16F10 melanoma cell-line. Kind of experiment: MTT colorimetric assay, overall cell growth, B16F10. The format is cell-based, mouse. Conditions: Mus musculus, B16-F10, 72 hours of incubation, read-out: In Vitro IC50 Growth Inhibitory Values, B16F10.
Excerpt: as §1

Another experiment relates to LoVo colon cancer cells. The experiment can be described thus: MTT colorimetric assay, overall cell growth, LoVo. Conditions: Homo sapiens, LoVo, 72 hours of incubation, read-out: In Vitro IC50 Growth Inhibitory Values, LoVo. The format is cell-based, human.
Excerpt: as §1

Experiment [5] concerns MCF-7 breast cancer cells. Kind of experiment: MTT colorimetric assay, overall cell growth, MCF-7. Type of experiment: cell-based, human. Conditions: Homo sapiens, MCF7, 72 hours of incubation, read-out: In Vitro IC50 Growth Inhibitory Values, MCF-7.
Excerpt: as §1

For experiment [6], the system named is OE21 oesophageal cancer cells. Kind of experiment: MTT colorimetric assay, overall cell growth, OE21. The format is cell-based, human. Conditions: Homo sapiens, OE21, 72 hours of incubation, read-out: In Vitro IC50 Growth Inhibitory Values, OE21.
Excerpt: as §1

Experiment [7] deals with OE33 oesophageal cancer cells. The experiment can be described thus: MTT colorimetric assay, overall cell growth, OE33. The format is cell-based, human. Conditions: Homo sapiens, OE33, 72 hours of incubation, read-out: In Vitro IC50 Growth Inhibitory Values, OE33.
Excerpt: as §1

Experiment [8] has as its system A549 non-small-cell-lung cancer cells. Kind of experiment: MTT colorimetric assay, overall cell growth, A549. Type of experiment: cell-based, human. Conditions: Homo sapiens, A549, 72 hours of incubation, read-out: In Vitro IC50 Growth Inhibitory Values, A549.
Excerpt: as §1

Experiment [9] deals with cancer cells versus normal fibroblasts. Kind of experiment: Anti-proliferative, anti-migratory and anti-kinase effects, cancer cells versus normal fibroblasts. The format is cell-based, human. Conditions: anti-proliferative. The text has this: The compounds of the invention were subsequently evaluated for their 1) anti-proliferative effect (by means of the colorimetric MTT assay), 2) pro-autophagic and pro-apoptotic effect (by means of flow cytometry analyses), and 3) anti-migratory effect (by means of quantitative videomicroscopy), in the following human cancer cell-lines: a) U373, T98G and Hs683 glioblastoma cells, b) VM21 and VM48 melanoma cells, c) PC-3 prostate cancer cells, d) MCF-7 breast cancer cells, e) LoVo colon cancer cells, f) OE21 oesophageal cancer cells, and g) A549 NSCLC cancer cells, as well as in human WS1 and WI38 normal fibroblasts (i.e. non-cancer cells).
The best current hits, DLT12 and DLT4, display anti-proliferative, anti-migratory effects and anti-kinase effects which are ˜10 times more pronounced in cancer cells than in normal fibroblasts. […] FIG. 1 illustrates the data obtained with respect to the human U373 glioblastoma model, while FIG. 2 illustrates the data obtained in human normal fibroblasts. […] DLT-95 and its derivatives DLT-95-F and DLT-95-Cl were also shown to have a significant effect on the proliferation 7 different human cancer cell-lines.

The IC50 is the concentration at which inhibition is half-maximal. Consider `COc1cc(C(=O)OCCCCCCCCOC(=O)c2ccc(O)c(OC)c2)ccc1O` [DLT13, Octane-1,8-diyl bis-(4-hydroxy-3-methoxybenzoate)], for which the IC50 worked out at 28 µM with VM21 melanoma cells, 42 µM in experiment [2] and 26 µM in the experiment with VM48 melanoma cells. Moreover, the activity at 50 µM (in [1]; in the experiment on U373-MG glioma cell line) was 20% in each case.
As for `COc1cc(C(=O)O[C@H]2CCCC[C@H]2OC(=O)c2ccc(O)c(OC)c2)ccc1O` [DLT9, cis-cyclohexane-1,2-diyl bis-(4-hydroxy-3-methoxybenzoate)], the IC50 with VM21 melanoma cells turned out to be 44 µM; with Hs683 glioma cells, 49 µM; in experiment [2] it was 48 ± 3 µM; in the experiment with U373 glioblastoma cells it was 43 µM; in [3], 35 µM; in the experiment on T98G glioma cells, 76 µM. Also, in the experiment on VM48 melanoma cells, the half-maximal inhibitory concentration (IC50) was found to be 57 µM. Also, the activity at 50 µM (in experiment [1]; in the experiment on U373-MG glioma cell line) was 20% throughout.
`COc1cc(C(=O)OCCCCCOC(=O)c2ccc(O)c(OC)c2)ccc1O` [DLT3, Pentane-1,5-diyl bis-(4-hydroxy-3-methoxybenzoate)]: the half-maximal inhibitory concentration (IC50) (in the experiment on VM21 melanoma cells; in experiment [2]; in experiment [3]; with VM48 melanoma cells) was above 100 µM in each case. Besides, the activity at 50 µM was 90% in experiment [1] and 70% in the experiment on U373-MG glioma cell line.
In the case of `COc1cc(C(=O)OCCCOC(=O)c2ccc(O)c(OC)c2)ccc1O` [DLT2, Propane-1,3-diyl bis-(4-hydroxy-3-methoxybenzoate)], the IC50 is 72 µM in the experiment with VM21 melanoma cells, above 100 µM in [2] and 68 µM in the experiment on VM48 melanoma cells. Besides, the activity at 50 µM was 110% in experiment [1] and 40% in the experiment with U373-MG glioma cell line.
Regarding `COc1cc(C(=O)OC2CCCC[C@@H]2OC(=O)c2ccc(O)c(OC)c2)ccc1O` (stereo partly drawn) [DLT7, S,S-trans-cyclohexane-1,2-diyl bis-(4-hydroxy-3-methoxybenzoate)], the IC50 came out at 35 µM in the experiment on VM21 melanoma cells; 49 µM in [4]; 44 µM in the experiment on LoVo colon cancer cells; 47 µM in experiment [5]; 57 µM with Hs683 glioma cells; 41 µM in [6]. Besides, the IC50 in [2] stood at 47 ± 4 µM; with U373 glioblastoma cells, 20 µM; in [3], 59 µM; in experiment [7], 66 µM; in experiment [8], 43 µM; with T98G glioma cells it was 70 µM. Also, the IC50 in the experiment on VM48 melanoma cells was 36 µM. The activity at 50 µM (in experiment [1]; in the experiment on U373-MG glioma cell line) was 20% each time.
Consider `COc1cc(C(=O)OCCCCCCCOC(=O)c2ccc(O)c(OC)c2)ccc1O` [DLT12, Heptane-1,7-diyl bis-(4-hydroxy-3-methoxybenzoate)], for which the 50% inhibitory concentration (IC50) in the experiment with VM21 melanoma cells was determined as 32 µM; in experiment [2] it was 46 µM; in the experiment with VM48 melanoma cells it was 38 µM. Further, the activity at 50 µM (in [1]; with U373-MG glioma cell line) was 20% in each case. Moreover, the “effects more pronounced in cancer cells than in normal fibroblasts” value in [9] is recorded as around 10 times.
`COc1cc(C(=O)OCCCCOC(=O)c2ccc(O)c(OC)c2)ccc1O` [DLT10, Butane-1,4-diyl bis-(4-hydroxy-3-methoxybenzoate)]: the concentration for half-maximal inhibition (IC50) with VM21 melanoma cells is 60 µM; in [2], above 100 µM; with VM48 melanoma cells, 52 µM. In addition, the activity at 50 µM in experiment [1] stood at 20%; in the experiment on U373-MG glioma cell line it was 50%.
As to `COc1cc(C(=O)O[C@@H]2CCCC[C@H]2OC(=O)c2ccc(O)c(OC)c2)ccc1O` [DLT8, R,R-trans-cyclohexane-1,2-diyl bis-(4-hydroxy-3-methoxybenzoate)], the IC50 was 77 µM in the experiment with VM21 melanoma cells; 59 µM in experiment [4]; 64 µM in the experiment with LoVo colon cancer cells; 75 µM in [5]; above 100 µM in the experiment with Hs683 glioma cells; 45 µM in experiment [6]. Further, the concentration for half-maximal inhibition (IC50) is above 100 µM in experiment [2]; 53 µM with U373 glioblastoma cells; 77 µM in experiment [3]; 77 µM in [7]; 76 µM in [8]; above 100 µM in the experiment on T98G glioma cells. Further, in the experiment with VM48 melanoma cells, the IC50 is 72 µM. Besides, the activity at 50 µM (in experiment [1]; in the experiment with U373-MG glioma cell line) was 50% each time.
